Results as given in patent US10487093B2, “Heterocyclic compounds, in particular 2-oxo-4,4,5,5,6,6,7,7-octahydrobenzoxazole derivatives, and their use as antibacterial compounds” (priority 2016, dated 2019).
≈ marks a conversion by molar mass, not a printed value. Read-outs that look alike come from different tables or passages of the source.

Columns and labels:
Format in all cases: cell-based
[1] = tested on: strains of Parvimonas micra; assay: MIC against anaerobes, agar dilution (CLSI), clinical isolates
[2] = tested on: strains of Peptoniphilus harei; assay: as above; conditions: Peptoniphilus harei, read-out: MIC
[3] = tested on: strains of Propionibacterium acnes; assay: as above; conditions: Cutibacterium acnes
[4] = tested on: Bacteroides thetaiotaomicron ATCC 29741; assay: microbe, parasite or virus in culture; conditions: ATCC29741, agar dilution, Brucella blood agar, 35° C., 48 h, anaerobic conditions, read-out: MIC, B. thetaiotaomicron ATCC
[5] = tested on: Haemophilus influenzae ATCC 49247; assay: MIC, broth microdilution (CLSI) versus planktonic bacteria; conditions: ATCC49247; Haemophilus influenzae ATCC 49247; 16-20 h; mode of three independent experiments; read-out: MIC, Hi ATCC 49247
[6] = tested on: strains of Finegoldia magna; assay: MIC against anaerobes, agar dilution (CLSI), clinical isolates; conditions: Finegoldia magna, read-out: MIC
[7] = tested on: strains of Clostridium perfringens; assay: microbe, parasite or virus in culture
[8] = tested on: strains of Prevotella melaninogenica; assay: MIC against anaerobes, agar dilution (CLSI), clinical isolates
[9] = tested on: strains of Bacteroides fragilis; assay: as above
[10] = tested on: strains of Peptostreptococcus anaerobius; assay: as above
[11] = tested on: Clostridium difficile ATCC 700057; assay: MIC against anaerobes, agar dilution (CLSI), reference strain; conditions: Clostridioides difficile, ATCC700057, 48 h, read-out: MIC, C. difficile ATCC 700057
[12] = tested on: Staphylococcus aureus ATCC 29213; assay: MIC, broth microdilution (CLSI) versus planktonic bacteria; conditions: ATCC29213; Staphylococcus aureus ATCC 29213; 16-20 h; mode of three independent experiments; read-out: MIC, Sa ATCC 29213
[13] = tested on: strains of Bacteroides thetaiotaomicron; assay: microbe, parasite or virus in culture
[14] = tested on: strains of Prevotella bivia; assay: MIC against anaerobes, agar dilution (CLSI), clinical isolates
[15] = tested on: Bacteroides fragilis ATCC 25285; assay: MIC against anaerobes, agar dilution (CLSI), reference strain; conditions: ATCC25285, agar dilution, Brucella blood agar, 35° C., 48 h, anaerobic conditions, read-out: MIC, B. fragilis ATCC 25285

In the case of COc1ccc2ncc(=O)n(CCN[C@@H]3CC[C@@H]4[C@@H](C3)OC(=O)N4c3ccc4c(n3)NC(=O)CO4)c2c1 [Compound 21, 1-(2-{[(3aR,6R,7aR)-2-oxo-3-{3-oxo-2H,3H,4H-pyrido[3,2-b][1,4]oxazin-6-yl}-octahydro-1,3-benzoxazol-6-yl]amino}ethyl)-7-methoxy-1,2-dihydroquinoxalin-2-one], the MIC ([1]; Parvimonas micra strain 1) is reported as < 1 µg/mL, the MIC ([1]; Parvimonas micra strain 2) is reported as < 1 µg/mL and the MIC ([1]; Parvimonas micra strain 3) is reported as < 1 µg/mL. For the same molecule, the MIC ([1]; Parvimonas micra strain 4) was 1 to 4 µg/mL (≈ 1.97 to 7.9 µM), the MIC ([1]; Parvimonas micra strain 5) was < 1 µg/mL and the MIC ([1]; Parvimonas micra strain 6) was < 1 µg/mL. For the same molecule, the MIC ([1]; Parvimonas micra strain 7) was < 1 µg/mL, the MIC ([1]; Parvimonas micra strain 8) was < 1 µg/mL and the MIC ([1]; Parvimonas micra strain 9) was < 1 µg/mL. The MIC ([1]; Parvimonas micra strain 10) was < 1 µg/mL, the MIC ([1]; Parvimonas micra strain 11) was < 1 µg/mL and the MIC ([1]; Parvimonas micra strain 12) was < 1 µg/mL. The MIC ([2]; Peptoniphilus harei strain 1) was < 1 µg/mL, the MIC ([2]; Peptoniphilus harei strain 2) was < 1 µg/mL and the MIC ([2]; Peptoniphilus harei strain 3) was < 1 µg/mL. For the same molecule, the MIC ([2]; Peptoniphilus harei strain 4) was < 1 µg/mL, the MIC ([2]; Peptoniphilus harei strain 5) was < 1 µg/mL and the MIC ([2]; Peptoniphilus harei strain 6) was < 1 µg/mL. For the same molecule, the MIC ([2]; Peptoniphilus harei strain 7) was < 1 µg/mL, the MIC ([2]; Peptoniphilus harei strain 8) was < 1 µg/mL and the MIC ([2]; Peptoniphilus harei strain 9) was < 1 µg/mL. The MIC ([2]; Peptoniphilus harei strain 10) was < 1 µg/mL, the MIC ([2]; Peptoniphilus harei strain 11) was < 1 µg/mL and the MIC ([2]; Peptoniphilus harei strain 12) was < 1 µg/mL. For the same molecule, the MIC ([3]; Propionibacterium acnes strain 1) was < 1 µg/mL, the MIC ([3]; Propionibacterium acnes strain 2) was < 1 µg/mL and the MIC ([3]; Propionibacterium acnes strain 3) was < 1 µg/mL. The MIC ([3]; Propionibacterium acnes strain 4) was < 1 µg/mL, the MIC ([3]; Propionibacterium acnes strain 5) was < 1 µg/mL and the MIC ([3]; Propionibacterium acnes strain 6) was < 1 µg/mL. The MIC ([3]; Propionibacterium acnes strain 7) was < 1 µg/mL, the MIC ([3]; Propionibacterium acnes strain 8) was < 1 µg/mL and the MIC ([3]; Propionibacterium acnes strain 9) was < 1 µg/mL. For the same molecule, the MIC ([3]; Propionibacterium acnes strain 10) was < 1 µg/mL, the MIC ([3]; Propionibacterium acnes strain 11) was < 1 µg/mL and the MIC ([3]; Propionibacterium acnes strain 12) was < 1 µg/mL. For the same molecule, the MIC [4] was < 1 µg/mL, the MIC [5] was < 1 µg/mL and the MIC ([6]; Finegoldia magna strain 1) was < 1 µg/mL. For the same molecule, the MIC ([6]; Finegoldia magna strain 2) was < 1 µg/mL, the MIC ([6]; Finegoldia magna strain 3) was < 1 µg/mL and the MIC ([6]; Finegoldia magna strain 4) was < 1 µg/mL. For the same molecule, the MIC ([6]; Finegoldia magna strain 5) was < 1 µg/mL, the MIC ([6]; Finegoldia magna strain 6) was < 1 µg/mL and the MIC ([6]; Finegoldia magna strain 7) was < 1 µg/mL. For the same molecule, the MIC ([6]; Finegoldia magna strain 8) was < 1 µg/mL, the MIC ([6]; Finegoldia magna strain 9) was < 1 µg/mL and the MIC ([6]; Finegoldia magna strain 10) was < 1 µg/mL. The MIC ([6]; Finegoldia magna strain 11) was < 1 µg/mL, the MIC ([6]; Finegoldia magna strain 12) was < 1 µg/mL and the MIC ([7]; Clostridium perfringens strain 1) was < 1 µg/mL. The MIC ([7]; Clostridium perfringens strain 2) was < 1 µg/mL, the MIC ([7]; Clostridium perfringens strain 3) was < 1 µg/mL and the MIC ([7]; Clostridium perfringens strain 4) was < 1 µg/mL. The MIC ([7]; Clostridium perfringens strain 5) was < 1 µg/mL, the MIC ([7]; Clostridium perfringens strain 6) was < 1 µg/mL and the MIC ([7]; Clostridium perfringens strain 7) was < 1 µg/mL. For the same molecule, the MIC ([7]; Clostridium perfringens strain 8) was < 1 µg/mL, the MIC ([7]; Clostridium perfringens strain 9) was < 1 µg/mL and the MIC ([7]; Clostridium perfringens strain 10) was < 1 µg/mL. The MIC ([7]; Clostridium perfringens strain 11) was < 1 µg/mL, the MIC ([8]; Prevotella melaninogenica strain 1) was < 1 µg/mL and the MIC ([8]; Prevotella melaninogenica strain 2) was < 1 µg/mL. The MIC ([8]; Prevotella melaninogenica strain 3) was < 1 µg/mL, the MIC ([8]; Prevotella melaninogenica strain 4) was < 1 µg/mL and the MIC ([8]; Prevotella melaninogenica strain 5) was < 1 µg/mL. For the same molecule, the MIC ([8]; Prevotella melaninogenica strain 6) was < 1 µg/mL, the MIC ([8]; Prevotella melaninogenica strain 7) was < 1 µg/mL and the MIC ([8]; Prevotella melaninogenica strain 8) was < 1 µg/mL. For the same molecule, the MIC ([8]; Prevotella melaninogenica strain 9) was < 1 µg/mL, the MIC ([8]; Prevotella melaninogenica strain 10) was < 1 µg/mL and the MIC ([8]; Prevotella melaninogenica strain 11) was < 1 µg/mL. For the same molecule, the MIC ([9]; Bacteroides fragilis strain 1) was 1 to 4 µg/mL (≈ 1.97 to 7.9 µM), the MIC ([9]; Bacteroides fragilis strain 2) was < 1 µg/mL and the MIC ([9]; Bacteroides fragilis strain 3) was < 1 µg/mL. The MIC ([9]; Bacteroides fragilis strain 4) was < 1 µg/mL, the MIC ([9]; Bacteroides fragilis strain 5) was < 1 µg/mL and the MIC ([9]; Bacteroides fragilis strain 6) was < 1 µg/mL. The MIC ([9]; Bacteroides fragilis strain 7) was < 1 µg/mL, the MIC ([9]; Bacteroides fragilis strain 8) was < 1 µg/mL and the MIC ([9]; Bacteroides fragilis strain 9) was < 1 µg/mL. The MIC ([9]; Bacteroides fragilis strain 10) was < 1 µg/mL, the MIC ([9]; Bacteroides fragilis strain 11) was < 1 µg/mL and the MIC ([9]; Bacteroides fragilis strain 12) was < 1 µg/mL. For the same molecule, the MIC ([10]; Peptostreptococcus anaerobius strain 1) was < 1 µg/mL, the MIC ([10]; Peptostreptococcus anaerobius strain 2) was < 1 µg/mL and the MIC ([10]; Peptostreptococcus anaerobius strain 3) was < 1 µg/mL. For the same molecule, the MIC ([10]; Peptostreptococcus anaerobius strain 4) was < 1 µg/mL, the MIC ([10]; Peptostreptococcus anaerobius strain 5) was < 1 µg/mL and the MIC ([10]; Peptostreptococcus anaerobius strain 6) was < 1 µg/mL. The MIC ([10]; Peptostreptococcus anaerobius strain 7) was < 1 µg/mL, the MIC ([10]; Peptostreptococcus anaerobius strain 8) was < 1 µg/mL and the MIC ([10]; Peptostreptococcus anaerobius strain 9) was < 1 µg/mL. The MIC ([10]; Peptostreptococcus anaerobius strain 10) was < 1 µg/mL, the MIC [11] was < 1 µg/mL and the MIC [12] was < 1 µg/mL. The MIC ([13]; Bacteroides thetaiotaomicron strain 1, read-out: MIC) was < 1 µg/mL, the MIC ([13]; Bacteroides thetaiotaomicron strain 2, read-out: MIC) was < 1 µg/mL and the MIC ([13]; Bacteroides thetaiotaomicron strain 3, read-out: MIC) was < 1 µg/mL. For the same molecule, the MIC ([13]; Bacteroides thetaiotaomicron strain 4, read-out: MIC) was < 1 µg/mL, the MIC ([13]; Bacteroides thetaiotaomicron strain 5, read-out: MIC) was < 1 µg/mL and the MIC ([13]; Bacteroides thetaiotaomicron strain 6, read-out: MIC) was < 1 µg/mL. For the same molecule, the MIC ([13]; Bacteroides thetaiotaomicron strain 7, read-out: MIC) was < 1 µg/mL, the MIC ([13]; Bacteroides thetaiotaomicron strain 8, read-out: MIC) was < 1 µg/mL and the MIC ([13]; Bacteroides thetaiotaomicron strain 9, read-out: MIC) was < 1 µg/mL. The MIC ([13]; Bacteroides thetaiotaomicron strain 10, read-out: MIC) was < 1 µg/mL, the MIC ([13]; Bacteroides thetaiotaomicron strain 11, read-out: MIC) was 1 to 4 µg/mL (≈ 1.97 to 7.9 µM) and the MIC ([14]; Prevotella bivia strain 1) was < 1 µg/mL. The MIC ([14]; Prevotella bivia strain 2) was < 1 µg/mL, the MIC ([14]; Prevotella bivia strain 3) was < 1 µg/mL and the MIC ([14]; Prevotella bivia strain 4) was < 1 µg/mL. The MIC ([14]; Prevotella bivia strain 5) was < 1 µg/mL, the MIC ([14]; Prevotella bivia strain 6) was < 1 µg/mL and the MIC ([14]; Prevotella bivia strain 7) was < 1 µg/mL. For the same molecule, the MIC ([14]; Prevotella bivia strain 8) was < 1 µg/mL, the MIC ([14]; Prevotella bivia strain 9) was < 1 µg/mL and the MIC ([14]; Prevotella bivia strain 10) was < 1 µg/mL. The MIC [15] was < 1 µg/mL.
